Measured values as given in patent US20230210846A1, “TREATMENT FOR AMYLOIDOSIS” (Zeno Management,Inc., priority 2020, published 2023).

Columns and labels:
[1] = system: KMS-12-BM cells; experiment: Tumor growth study in KMS-12-BM mouse model; format: in vivo; conditions: for tumor growth inhibition (TGI): KMS-12-BM model
Experimental: Tumor volumes were evaluated twice per week to calculate tumor volume over time, and mice were weighed twice per week as a surrogate for signs of toxicity. […] Td and Cd are the mean tumor volumes of the treated and control animals, and T0 and C0 are the mean tumor volumes of the treated and control animals at the start of the experiment.
(§1) Tumor volumes were evaluated twice per week to calculate tumor volume over time, and mice were weighed twice per week as a surrogate for signs of toxicity. Tumor growth inhibition (TGI) was calculated using the following equation TGI=(1−(Td−T0)/(Cd−C0))×100%. Td and Cd are the mean tumor volumes of the treated and control animals, and T0 and C0 are the mean tumor volumes of the treated and control animals at the start of the experiment.
as §1

[2] = system: OPM-2 cells; experiment: Tumor growth study in OPM-2 mouse model; format: in vivo; conditions: OPM-2 subcutaneous model, 100 mg/kg oral gavage once a day, after 10 days
Experimental: It is understood that compound activity in MM models is predictive of activity in amyloidosis (e.g. AL amyloidosis) models and/or patients.
Mice were inoculated with OPM-2 cells subcutaneously on the right flank with the single cell suspension of 95% viable tumor cells (1×10^7) in 200 μL RPMI-1640 Matrigel mixture (1:1 ratio) without serum for the tumor development. The treatment was started when the mean tumor size reached approximately 200 mm^3, with individual tumor size ranging from 180-220 mm^3. Animals were randomly distributed into treatment groups of 10 animals each and dosed with either vehicle (i.e. “Vehicle A”) or a compound of Formula (A) having the structure
(“Compound (A)”) at 100 mg/kg administered by oral gavage once a day. Tumor volumes were evaluated twice per week to calculate tumor volume over time, and mice were weighed twice per week as a surrogate for signs of toxicity. Tumor growth inhibition (TGI) efficiency was calculated using the following equation TGI=(1−(Td−T0)/(Cd−C0))×100%. Td and Cd are the mean tumor volumes of the treated and control animals, and T0 and C0 are the mean tumor volumes of the treated and control animals at the start of the experiment.

CC(C)C[C@H](NC(=O)[C@H](Cc1ccccc1)NC(=O)c1cnccn1)B(O)O [bortezomib, reference compound]
tumor growth inhibition (TGI) ([1]; single agent 0.5 mg/kg IP BIW, day 14): 46.5%

CC1(C)CCC(CN2CCN(c3ccc(C(=O)NS(=O)(=O)c4ccc(NC[C@H]5CC[C@](C)(O)CC5)c([N+](=O)[O-])c4)c(Oc4cnc5[nH]ccc5c4)c3)CC2)=C(C23CC(C(F)F)(C2)C3)C1 [Compound (A)]
TGI efficacy (tumor growth inhibition) [2]: 46%
tumor growth inhibition (TGI) ([1]; single agent 50 mg/kg p.o. qd x21, day 14): 48.7%
TGI efficacy (tumor growth inhibition) ([1]; KMS-12-BM subcutaneous model, single agent 100 mg/kg p.o. qd, day 14): 62.8%

C[C@@H]1C[C@H]2[C@@H]3CCC4=CC(=O)C=C[C@]4(C)[C@@]3(F)[C@@H](O)C[C@]2(C)[C@@]1(O)C(=O)CO [dexamethasone, reference compound]
tumor growth inhibition (TGI) ([1]; single agent 1 mg/kg IP 5 days on 2 days off, day 14): 22.5%
